From the kinase profiling compilation of Christmann-Franck et al. (2016)
Values joined by “and” are separate entries in the source; they are usually repeats but may differ in a detail not shown here. Identical values can stand only once.

Columns and labels:
Assay in all cases: Caliper, Mobility shift assay off-chip
[1] = target: BRSK2 (human) (UniProt Q8IWQ3)
[2] = target: CDK2 (human) (UniProt P24941)
[3] = target: CDK4 (human) (UniProt P11802)
[4] = target: CDK6 (human) (UniProt Q00534)
[5] = target: CSK (human) (UniProt P41240)
[6] = target: CSNK1G1 (human) (UniProt Q9HCP0)
[7] = target: DAPK1 (human) (UniProt P53355)
[8] = target: EPHA1 (human) (UniProt P21709)
[9] = target: EPHA7 (human) (UniProt Q15375)
[10] = target: FER (human) (UniProt P16591)
[11] = target: FES (human) (UniProt P07332)
[12] = target: FGFR4 (human) (UniProt P22455)
[13] = target: GSG2 (human) (UniProt Q8TF76)
[14] = target: INSRR (human) (UniProt P14616)
[15] = target: MAPK14 (human) (UniProt Q16539)
[16] = target: NEK9 (human) (UniProt Q8TD19)
[17] = target: NTRK1 (human) (UniProt P04629)
[18] = target: NTRK2 (human) (UniProt Q16620)
[19] = target: PASK (human) (UniProt Q96RG2)
[20] = target: PGK1 (human) (UniProt P00558)
[21] = target: PHKG1 (human) (UniProt Q16816)
[22] = target: PRKAA2 (human) (UniProt P54646)
[23] = target: PRKCD (human) (UniProt Q05655)
[24] = target: PRKCI (human) (UniProt P41743)
[25] = target: PRKD2 (human) (UniProt Q9BZL6)
[26] = target: PTK2B (human) (UniProt Q14289)
[27] = target: RPS6KA1 KD1 KD2 (human) (UniProt Q15418)
[28] = target: SIK1 (human) (UniProt P57059)
[29] = target: TSSK2 (human) (UniProt Q96PF2)
[30] = target: TYRO3 (human) (UniProt Q06418)
[31] = target: ZAP70 (human) (UniProt P43403)
[32] = target: AURKB (human) (UniProt Q96GD4)
[33] = target: EPHB4 (human) (UniProt P54760)
[34] = target: NTRK3 (human) (UniProt Q16288)

Sequence of PHKG1 (human) (Q16816 whole entry, looked up): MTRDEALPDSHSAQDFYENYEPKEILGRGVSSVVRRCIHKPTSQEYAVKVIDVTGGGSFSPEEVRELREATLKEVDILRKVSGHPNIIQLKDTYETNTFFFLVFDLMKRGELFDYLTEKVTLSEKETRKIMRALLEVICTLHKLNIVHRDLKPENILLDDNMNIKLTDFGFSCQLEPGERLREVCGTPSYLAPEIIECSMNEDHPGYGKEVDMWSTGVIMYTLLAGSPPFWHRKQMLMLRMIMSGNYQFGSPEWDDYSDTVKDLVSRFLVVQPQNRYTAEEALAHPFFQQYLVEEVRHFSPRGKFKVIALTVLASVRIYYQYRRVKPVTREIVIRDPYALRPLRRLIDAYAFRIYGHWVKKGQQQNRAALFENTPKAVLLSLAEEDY
Sequence of NTRK1 (human) (P04629 whole entry, looked up): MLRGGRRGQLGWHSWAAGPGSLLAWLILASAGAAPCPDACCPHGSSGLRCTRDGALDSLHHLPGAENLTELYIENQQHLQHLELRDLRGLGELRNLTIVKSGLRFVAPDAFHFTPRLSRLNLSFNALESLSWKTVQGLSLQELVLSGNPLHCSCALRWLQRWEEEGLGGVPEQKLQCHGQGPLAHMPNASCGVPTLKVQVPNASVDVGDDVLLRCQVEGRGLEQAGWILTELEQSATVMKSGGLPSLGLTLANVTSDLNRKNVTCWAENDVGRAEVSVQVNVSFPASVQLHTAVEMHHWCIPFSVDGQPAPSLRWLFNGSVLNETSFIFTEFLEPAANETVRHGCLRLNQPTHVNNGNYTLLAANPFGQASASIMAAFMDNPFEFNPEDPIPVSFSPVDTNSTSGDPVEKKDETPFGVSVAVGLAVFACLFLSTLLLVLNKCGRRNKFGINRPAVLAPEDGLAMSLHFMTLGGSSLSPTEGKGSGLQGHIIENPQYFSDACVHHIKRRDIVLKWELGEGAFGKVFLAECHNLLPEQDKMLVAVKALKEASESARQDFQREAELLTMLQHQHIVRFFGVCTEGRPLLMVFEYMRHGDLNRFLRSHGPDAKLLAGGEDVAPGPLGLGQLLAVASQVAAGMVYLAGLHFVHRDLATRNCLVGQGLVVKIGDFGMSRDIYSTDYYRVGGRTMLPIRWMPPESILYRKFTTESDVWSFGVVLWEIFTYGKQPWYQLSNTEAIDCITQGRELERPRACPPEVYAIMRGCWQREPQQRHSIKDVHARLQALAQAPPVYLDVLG
Sequence of TYRO3 (human) (Q06418 whole entry, looked up): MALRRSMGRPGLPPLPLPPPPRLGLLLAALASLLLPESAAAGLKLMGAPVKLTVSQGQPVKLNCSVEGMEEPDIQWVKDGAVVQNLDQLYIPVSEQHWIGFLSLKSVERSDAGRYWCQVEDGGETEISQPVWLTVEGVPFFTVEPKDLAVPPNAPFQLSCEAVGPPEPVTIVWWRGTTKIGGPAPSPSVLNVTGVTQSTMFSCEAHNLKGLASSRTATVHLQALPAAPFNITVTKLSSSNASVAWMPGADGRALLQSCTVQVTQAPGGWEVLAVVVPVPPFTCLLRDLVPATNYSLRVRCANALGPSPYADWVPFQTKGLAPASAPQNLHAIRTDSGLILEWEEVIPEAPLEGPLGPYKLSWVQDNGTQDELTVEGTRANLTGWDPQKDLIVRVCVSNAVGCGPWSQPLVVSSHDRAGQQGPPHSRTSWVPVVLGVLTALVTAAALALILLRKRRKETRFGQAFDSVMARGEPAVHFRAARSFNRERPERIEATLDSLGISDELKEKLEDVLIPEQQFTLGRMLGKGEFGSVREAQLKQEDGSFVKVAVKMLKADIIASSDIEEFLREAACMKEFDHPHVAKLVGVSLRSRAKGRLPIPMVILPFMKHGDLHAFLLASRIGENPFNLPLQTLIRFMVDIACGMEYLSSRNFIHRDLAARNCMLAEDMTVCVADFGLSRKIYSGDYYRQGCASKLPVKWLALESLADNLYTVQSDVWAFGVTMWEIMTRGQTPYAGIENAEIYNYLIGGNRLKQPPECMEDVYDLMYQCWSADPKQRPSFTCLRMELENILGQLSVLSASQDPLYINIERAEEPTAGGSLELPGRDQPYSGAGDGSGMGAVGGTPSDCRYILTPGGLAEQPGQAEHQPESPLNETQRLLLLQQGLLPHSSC
Sequence of CDK6 (human) (Q00534 whole entry, looked up): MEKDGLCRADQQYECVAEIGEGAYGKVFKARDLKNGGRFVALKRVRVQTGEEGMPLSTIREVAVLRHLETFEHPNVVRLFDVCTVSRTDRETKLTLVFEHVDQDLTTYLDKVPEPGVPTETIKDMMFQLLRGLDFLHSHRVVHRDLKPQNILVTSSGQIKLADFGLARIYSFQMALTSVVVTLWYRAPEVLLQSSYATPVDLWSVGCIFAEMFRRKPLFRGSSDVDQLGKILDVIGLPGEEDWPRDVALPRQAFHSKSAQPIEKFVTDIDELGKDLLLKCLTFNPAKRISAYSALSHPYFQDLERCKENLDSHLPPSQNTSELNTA
Sequence of FER (human) (P16591 whole entry, looked up): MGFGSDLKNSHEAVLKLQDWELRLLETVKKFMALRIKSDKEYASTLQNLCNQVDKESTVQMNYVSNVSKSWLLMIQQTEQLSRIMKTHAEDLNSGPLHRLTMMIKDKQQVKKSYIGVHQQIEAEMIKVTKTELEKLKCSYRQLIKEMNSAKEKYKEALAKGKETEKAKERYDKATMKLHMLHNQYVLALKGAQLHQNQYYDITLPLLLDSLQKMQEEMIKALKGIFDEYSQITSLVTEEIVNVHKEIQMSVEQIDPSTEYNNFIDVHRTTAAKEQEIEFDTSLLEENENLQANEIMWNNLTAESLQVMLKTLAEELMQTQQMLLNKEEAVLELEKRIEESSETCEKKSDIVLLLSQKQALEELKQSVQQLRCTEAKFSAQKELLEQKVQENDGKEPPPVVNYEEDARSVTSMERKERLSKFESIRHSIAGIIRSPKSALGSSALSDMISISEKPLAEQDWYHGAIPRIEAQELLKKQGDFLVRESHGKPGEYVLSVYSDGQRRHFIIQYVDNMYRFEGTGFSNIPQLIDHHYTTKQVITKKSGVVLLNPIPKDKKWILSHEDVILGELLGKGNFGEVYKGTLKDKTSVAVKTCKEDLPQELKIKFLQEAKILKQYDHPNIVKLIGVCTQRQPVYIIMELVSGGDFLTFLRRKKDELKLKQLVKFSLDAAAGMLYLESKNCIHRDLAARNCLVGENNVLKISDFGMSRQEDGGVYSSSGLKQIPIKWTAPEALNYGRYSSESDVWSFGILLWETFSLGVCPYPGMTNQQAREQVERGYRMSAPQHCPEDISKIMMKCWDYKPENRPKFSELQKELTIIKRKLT
Sequence of PASK (human) (Q96RG2 whole entry, looked up): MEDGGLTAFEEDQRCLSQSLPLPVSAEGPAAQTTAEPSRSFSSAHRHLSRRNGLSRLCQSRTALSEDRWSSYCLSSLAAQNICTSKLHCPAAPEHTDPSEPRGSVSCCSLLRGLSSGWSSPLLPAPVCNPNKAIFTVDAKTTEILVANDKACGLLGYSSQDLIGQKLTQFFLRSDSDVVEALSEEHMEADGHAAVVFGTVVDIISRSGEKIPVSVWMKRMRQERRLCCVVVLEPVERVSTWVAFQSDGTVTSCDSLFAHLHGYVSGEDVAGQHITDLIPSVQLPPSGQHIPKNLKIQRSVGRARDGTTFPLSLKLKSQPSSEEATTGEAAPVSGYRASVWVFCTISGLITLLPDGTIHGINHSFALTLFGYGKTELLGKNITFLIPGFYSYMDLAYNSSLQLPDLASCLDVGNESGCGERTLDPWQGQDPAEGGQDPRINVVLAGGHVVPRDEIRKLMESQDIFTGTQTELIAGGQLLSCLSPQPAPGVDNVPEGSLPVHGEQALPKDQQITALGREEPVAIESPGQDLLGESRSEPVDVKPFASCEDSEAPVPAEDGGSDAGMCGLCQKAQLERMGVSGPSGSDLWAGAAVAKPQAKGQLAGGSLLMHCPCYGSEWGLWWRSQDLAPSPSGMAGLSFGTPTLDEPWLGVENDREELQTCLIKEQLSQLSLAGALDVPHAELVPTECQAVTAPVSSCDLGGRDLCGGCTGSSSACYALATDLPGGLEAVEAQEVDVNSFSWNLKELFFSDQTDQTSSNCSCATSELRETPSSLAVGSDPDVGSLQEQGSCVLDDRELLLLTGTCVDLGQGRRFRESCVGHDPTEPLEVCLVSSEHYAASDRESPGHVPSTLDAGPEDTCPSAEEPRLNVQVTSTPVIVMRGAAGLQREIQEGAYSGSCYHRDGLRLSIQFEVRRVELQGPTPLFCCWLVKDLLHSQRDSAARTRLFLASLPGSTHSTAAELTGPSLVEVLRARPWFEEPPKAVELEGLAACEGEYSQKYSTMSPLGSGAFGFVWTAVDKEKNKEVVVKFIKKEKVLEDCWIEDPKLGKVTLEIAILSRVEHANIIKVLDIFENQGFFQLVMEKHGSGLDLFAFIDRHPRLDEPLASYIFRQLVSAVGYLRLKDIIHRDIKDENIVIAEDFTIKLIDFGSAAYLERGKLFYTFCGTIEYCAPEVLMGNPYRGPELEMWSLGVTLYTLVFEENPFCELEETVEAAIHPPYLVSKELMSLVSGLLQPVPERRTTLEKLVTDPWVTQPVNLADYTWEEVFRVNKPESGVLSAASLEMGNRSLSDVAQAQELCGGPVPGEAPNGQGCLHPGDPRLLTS
Sequence of MAPK14 (human) (Q16539 whole entry, looked up): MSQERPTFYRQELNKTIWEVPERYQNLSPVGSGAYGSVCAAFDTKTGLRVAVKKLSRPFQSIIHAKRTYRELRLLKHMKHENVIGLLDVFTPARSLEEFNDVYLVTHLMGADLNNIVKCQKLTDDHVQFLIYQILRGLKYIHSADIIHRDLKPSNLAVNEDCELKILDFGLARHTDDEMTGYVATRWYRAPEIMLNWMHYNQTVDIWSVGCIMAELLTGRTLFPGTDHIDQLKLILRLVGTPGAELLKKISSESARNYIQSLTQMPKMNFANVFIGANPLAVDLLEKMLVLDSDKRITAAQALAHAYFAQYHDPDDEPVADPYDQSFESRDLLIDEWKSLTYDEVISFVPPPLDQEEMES

## CNC(=O)c1cc(Oc2ccc(NC(=O)Nc3ccc(Cl)c(C(F)(F)F)c3)cc2)ccn1
[1]; compound 0.02 µM
  inhibition: -1.1%
[1]; compound 0.2 µM
  inhibition: -1.3%
[2]; compound 0.02 µM
  inhibition: -3.5% and -3.6%
[2]; compound 0.2 µM
  inhibition: -1.3% and -2.4%
[3]; compound 0.02 µM
  inhibition: -2.3%
[3]; compound 0.2 µM
  inhibition: -2.5%
[4]; compound 0.02 µM
  inhibition: 0.1%
[4]; compound 0.2 µM
  inhibition: 2%
[5]; compound 0.02 µM
  inhibition: -9.3%
[5]; compound 0.2 µM
  inhibition: 2.6%
[6]; compound 0.02 µM
  inhibition: -3.7%
[6]; compound 0.2 µM
  inhibition: -3%
[7]; compound 0.02 µM
  inhibition: 0.7%
[7]; compound 0.2 µM
  inhibition: 1.1%
[8]; compound 0.02 µM
  inhibition: -1.2%
[8]; compound 0.2 µM
  inhibition: 8%
[9]; compound 0.02 µM
  inhibition: 2%
[9]; compound 0.2 µM
  inhibition: 26.5%
[10]; compound 0.02 µM
  inhibition: -1.8%
[10]; compound 0.2 µM
  inhibition: 13.2%
[11]; compound 0.02 µM
  inhibition: -3.2%
[11]; compound 0.2 µM
  inhibition: 7.2%
[12]; compound 0.02 µM
  inhibition: -7.4%
[12]; compound 0.2 µM
  inhibition: 8.8%
[13]; compound 0.02 µM
  inhibition: -3%
[13]; compound 0.2 µM
  inhibition: -1.8%
[14]; compound 0.02 µM
  inhibition: -6.9%
[14]; compound 0.2 µM
  inhibition: -3%
[15]; compound 0.2 µM
  inhibition: 63.8%
[16]; compound 0.02 µM
  inhibition: -3.7%
[16]; compound 0.2 µM
  inhibition: -5.9%
[17]; compound 0.02 µM
  inhibition: 7.9%
[17]; compound 0.2 µM
  inhibition: 37.2%
[18]; compound 0.02 µM
  inhibition: 3.2%
[18]; compound 0.2 µM
  inhibition: 37.4%
[19]; compound 0.02 µM
  inhibition: -1%
[19]; compound 0.2 µM
  inhibition: 1.7%
[20]; compound 0.02 µM
  inhibition: -6.2%
[20]; compound 0.2 µM
  inhibition: 1.9%
[21]; compound 0.02 µM
  inhibition: -3.6%
[21]; compound 0.2 µM
  inhibition: -2%
[22]; compound 0.02 µM
  inhibition: -5.3%
[22]; compound 0.2 µM
  inhibition: 10.4%
[23]; compound 0.02 µM
  inhibition: -1.7%
[23]; compound 0.2 µM
  inhibition: 11.7%
[24]; compound 0.02 µM
  inhibition: -0.2%
[24]; compound 0.2 µM
  inhibition: 5.7%
[25]; compound 0.02 µM
  inhibition: -1.2%
[25]; compound 0.2 µM
  inhibition: 0%
[26]; compound 0.02 µM
  inhibition: -2.8%
[26]; compound 0.2 µM
  inhibition: -2.7%
[27]; compound 0.02 µM
  inhibition: -3.6%
[27]; compound 0.2 µM
  inhibition: 3.1%
[28]; compound 0.02 µM
  inhibition: -3.4%
[28]; compound 0.2 µM
  inhibition: 7.3%
[29]; compound 0.02 µM
  inhibition: -3.9%
[29]; compound 0.2 µM
  inhibition: -2.4%
[30]; compound 0.02 µM
  inhibition: -9.4%
[30]; compound 0.2 µM
  inhibition: 3.7%
[31]; compound 0.02 µM
  inhibition: -17.2%
[31]; compound 0.2 µM
  inhibition: 19.1%

## Cc1ccc(Nc2nccc(N(C)c3ccc4c(C)n(C)nc4c3)n2)cc1S(N)(=O)=O
[32]; compound 0.02 µM
  inhibition: 2.7%
[32]; compound 0.2 µM
  inhibition: 12.5%
[1]; compound 0.02 µM
  inhibition: -2.2%
[1]; compound 0.2 µM
  inhibition: 0.4%
[2]; compound 0.02 µM
  inhibition: -0.1% and -1.7%
[2]; compound 0.2 µM
  inhibition: -1.7% and -2.8%
[3]; compound 0.2 µM
  inhibition: 13.2%
[4]; compound 0.02 µM
  inhibition: 6.2%
[4]; compound 0.2 µM
  inhibition: 8.2%
[5]; compound 0.02 µM
  inhibition: -4.8%
[5]; compound 0.2 µM
  inhibition: -0.7%
[6]; compound 0.02 µM
  inhibition: -0.9%
[6]; compound 0.2 µM
  inhibition: -1%
[7]; compound 0.02 µM
  inhibition: 6.5%
[7]; compound 0.2 µM
  inhibition: 6.7%
[8]; compound 0.02 µM
  inhibition: -1.3%
[8]; compound 0.2 µM
  inhibition: 15.3%
[9]; compound 0.02 µM
  inhibition: 0.1%
[9]; compound 0.2 µM
  inhibition: 1.7%
[33]; compound 0.02 µM
  inhibition: -2.8%
[33]; compound 0.2 µM
  inhibition: -2.6%
[10]; compound 0.02 µM
  inhibition: 15.1%
[10]; compound 0.2 µM
  inhibition: 40.1%
[12]; compound 0.02 µM
  inhibition: 0.7%
[12]; compound 0.2 µM
  inhibition: 29.7%
[13]; compound 0.02 µM
  inhibition: -1.1%
[13]; compound 0.2 µM
  inhibition: 4.3%
[14]; compound 0.02 µM
  inhibition: 0.1%
[14]; compound 0.2 µM
  inhibition: 0.3%
[15]; compound 0.02 µM
  inhibition: -9%
[15]; compound 0.2 µM
  inhibition: -2.5%
[16]; compound 0.02 µM
  inhibition: -3.7%
[16]; compound 0.2 µM
  inhibition: 1.4%
[17]; compound 0.02 µM
  inhibition: 7%
[17]; compound 0.2 µM
  inhibition: 16.7%
[18]; compound 0.02 µM
  inhibition: 5.5%
[18]; compound 0.2 µM
  inhibition: 14.7%
[34]; compound 0.02 µM
  inhibition: 5.4%
[34]; compound 0.2 µM
  inhibition: 9.1%
[19]; compound 0.02 µM
  inhibition: -0.6%
[19]; compound 0.2 µM
  inhibition: 3.1%
[20]; compound 0.02 µM
  inhibition: -5.4%
[20]; compound 0.2 µM
  inhibition: -2.2%
[21]; compound 0.02 µM
  inhibition: -1.4%
[21]; compound 0.2 µM
  inhibition: -1.9%
[22]; compound 0.02 µM
  inhibition: 7%
[22]; compound 0.2 µM
  inhibition: -6.6%
[23]; compound 0.02 µM
  inhibition: -1.6%
[23]; compound 0.2 µM
  inhibition: -4.4%
[24]; compound 0.02 µM
  inhibition: 3.4%
[24]; compound 0.2 µM
  inhibition: 2.1%
[25]; compound 0.02 µM
  inhibition: -2.2%
[25]; compound 0.2 µM
  inhibition: -1.5%
[26]; compound 0.02 µM
  inhibition: -0.4%
[26]; compound 0.2 µM
  inhibition: 9.7%
[27]; compound 0.02 µM
  inhibition: 0.5%
[27]; compound 0.2 µM
  inhibition: 5.4%
[28]; compound 0.02 µM
  inhibition: -3%
[28]; compound 0.2 µM
  inhibition: 0%
[29]; compound 0.02 µM
  inhibition: -4.3%
[29]; compound 0.2 µM
  inhibition: -2.4%
[30]; compound 0.02 µM
  inhibition: 2.3%
[30]; compound 0.2 µM
  inhibition: 10.6%
[31]; compound 0.02 µM
  inhibition: 7%
[31]; compound 0.2 µM
  inhibition: 13.3%
